± gives the expanded uncertainty stated by the source.
Settings: 298.15 K, 101.33 kPa, Liquid

## OCCO [1,2-ethanediol]
Alternating current cell with electrodes
  electrical conductivity: 9.2e-05 ± 2e-06 S/m
Transient line heat source
  thermal conductivity: 0.2438 ± 0.011 W/m/K

From the NIST ThermoML archive (doi:10.1016/j.tca.2016.05.006)
